Cn1cc[n+](CCC[n+]2ccn(C)c2)c1.F[P-](F)(F)(F)(F)F.F[P-](F)(F)(F)(F)F
Conditions | solubility (mole fraction)
in 2-butanone, 290.15 K | 0.00292
in 2-butanone, 294.15 K | 0.00339
in 2-butanone, 299.35 K | 0.00404
in 2-butanone, 303.15 K | 0.00458
in 2-butanone, 308.15 K | 0.00524
in 2-butanone, 313.25 K | 0.00598
in 2-butanone, 318.15 K | 0.00671
in 2-butanone, 323.15 K | 0.00738
in 2-butanone, 328.15 K | 0.00811
in 2-butanone, 335.25 K | 0.00913
in acetone, 289.15 K | 0.0365
in acetone, 293.15 K | 0.0401
in acetone, 296.65 K | 0.0433
in acetone, 301.15 K | 0.0485
in acetone, 306.15 K | 0.0551
in acetone, 310.15 K | 0.0605
in acetone, 315.15 K | 0.0681
in acetone, 321.15 K | 0.0772
in acetophenone, 289.15 K | 0.000417
in acetophenone, 293.15 K | 0.000461
in acetophenone, 296.65 K | 0.0005
in acetophenone, 302.15 K | 0.00056
in acetophenone, 307.15 K | 0.000619
in acetophenone, 312.15 K | 0.000683
in acetophenone, 317.35 K | 0.000743
in acetophenone, 321.65 K | 0.000807
in acetophenone, 328.15 K | 0.000899
in acetophenone, 333.15 K | 0.000996
in acetylacetone, 288.55 K | 0.000598
in acetylacetone, 293.15 K | 0.000876
in acetylacetone, 297.45 K | 0.0012
in acetylacetone, 302.65 K | 0.00172
in acetylacetone, 307.85 K | 0.00241
in acetylacetone, 313.15 K | 0.00325
in acetylacetone, 317.65 K | 0.00411
in acetylacetone, 323.15 K | 0.00532
in acetylacetone, 327.35 K | 0.00639
in acetylacetone, 334.65 K | 0.0084
in cyclohexanone, 289.65 K | 0.000151
in cyclohexanone, 294.15 K | 0.000222
in cyclohexanone, 299.15 K | 0.000331
in cyclohexanone, 303.15 K | 0.000443
in cyclohexanone, 308.15 K | 0.000622
in cyclohexanone, 313.25 K | 0.000852
in cyclohexanone, 318.15 K | 0.00112
in cyclohexanone, 323.15 K | 0.00143
in cyclohexanone, 328.15 K | 0.00181
in cyclohexanone, 333.15 K | 0.00224
in water, 289.15 K | 7.7e-05
in water, 293.15 K | 0.000102
in water, 297.65 K | 0.000137
in water, 304.75 K | 0.000216
in water, 309.35 K | 0.000289
in water, 313.25 K | 0.000366
in water, 317.15 K | 0.000454
in water, 322.65 K | 0.000611
in water, 327.15 K | 0.00078
in water, 332.65 K | 0.00104

— BigSolDB 2.1
